Like-named read-outs stand apart in the source and are kept apart here.
Experiments:
TPP riboswitch RNA = experiment: Isothermal titration calorimetry (ITC) binding to TPP riboswitch RNA; details: for binding cooperativity with 2: ITC with and without pre-bound 2
[1] = test system: TPP riboswitch region of the screening construct; experiment: SHAPE / SHAPE-MaP fragment screening and replicate hit validation; assay type: binding; details: RNA pre-bound to primary fragment, fragment 1 mM, 5NIA reagent
Experimental: Fragments were obtained as a fragment screening library from Maybridge, which was a subset of their Ro3 diversity fragment library and contained 1500 compounds dissolved in DMSO at 50 mM. Most of these compounds adhere to the “rule of three” for fragment compounds; having a molecular mass <300 Da, containing ≤3 hydrogen bond donors and ≤3 hydrogen bond acceptors, and ClogP ≤3.0. All compounds used for ITC, with the exception of those listed in Example 5, were purchased from Millipore-Sigma and used without further purification. Screening experiments were carried out in 25 μL in 96-well plate format on a Tecan Freedom Evo-150 liquid handler equipped with an 8-channel air displacement pipetting arm, disposable filter tips, robotic manipulator arm, and an EchoTherm RIC20 remote controlled heating/cooling dry bath (Torrey Pines Scientific). Liquid handler programs used for screening are available upon request. […]
Once screening of test fragments is complete, statistical tests are carried out to identify differences in modification rates of a given nucleotide. […] That is, if m1 modifications of a tested nucleotide were counted among n1 reads in sample 1 and m2 modifications were counted among n2 reads in sample 2, the tested null hypothesis predicts that among all the counted modifications (m1+m2), the proportion of modifications in sample 1 will be p1=n1/(n1+n2). […]

[2] = Table 4, fragment 5 analogs, pendant groups, ITC, read-out: Kd
[3] = Table 8, linked analogs, read-out: Kd
[4] = Table 4, fragment 5 analogs, pendant groups, ITC

Cc1cccc2nccnc12 [Compound 23] gave a Kd (TPP riboswitch RNA; Table 2B, fragment 2 analogs, pendant groups, ITC, read-out: Kd) of 220 µM.
In the case of c1cc2[nH]cnc2cn1 [Compound 6], the Kd (TPP riboswitch RNA; Table 3, fragment 5 analogs, pyridine core modifications, ITC, read-out: Kd) is reported as 265 µM.
Work on NS(=O)(=O)c1ccc(Cl)nc1 [Compound S16] yielded a Kd (TPP riboswitch RNA; [2]) of 1300 µM.
Work on COC(=O)c1ccc(C)nc1 [Compound S8] yielded a Kd (TPP riboswitch RNA; [2]) of 1100 µM.
Compound COC(=O)c1ccc([N+](=O)[O-])nc1 [Compound S6] has a Kd (TPP riboswitch RNA; [2]) of 390 µM.
O=C(CCCC(=O)Nc1ccc2nccnc2c1)NO [KW-5-1, N^1-hydroxy-N^5-(quinoxalin-6-yl)glutaramide] gave a Kd (TPP riboswitch RNA; [3]) of 477 µM.
For CN(C)C(=O)c1ccc(Cl)nc1 [Compound S18], the Kd (TPP riboswitch RNA; [4]) was “no binding”.
For O=C(CNc1cnccc1N1CCNCC1)Nc1ccc2nccnc2c1 [KW-29-1, 2-((4-(piperazin-1-yl)pyridin-3-yl)amino)-N-(quinoxalin-6-yl)acetamide], the Kd (TPP riboswitch RNA; [3]) was 10.5 µM.
O=C(CNc1ccc2nccnc2c1)NO [KW-31-1, N-hydroxy-2-(quinoxalin-6-ylamino)acetamide] showed a Kd (TPP riboswitch RNA; [3]) of 58.1 µM.
With Cc1cnccc1N1CCNCC1 [Compound 32] the “binding cooperativity with 2” value (TPP riboswitch RNA) was “clear, but modest, binding cooperativity”.
In the case of COC(=O)c1cnc(Cl)cc1Cl [Compound S12], the Kd (TPP riboswitch RNA; [2]) is reported as 93 µM and the “fold higher affinity for the TPP riboswitch than fragment 5” value (TPP riboswitch RNA; relative to fragment 5) is reported as “approximately threefold”.
For CCOc1ccc(C(=O)OC)cn1 [Compound S7], the Kd (TPP riboswitch RNA; [2]) was 1800 µM.
In the case of c1cc(N2CCNCC2)ccn1 [Compound 31], the “binding cooperativity with 2” value (TPP riboswitch RNA) is reported as “clear, but modest, binding cooperativity”.
Cc1ncc(C[n+]2csc(CCOP(=O)([O-])OP(=O)(O)O)c2C)c(N)n1 [Compound 9, thiamine pyrophosphate, reference compound] gave a Kd (TPP riboswitch RNA; Table 1, SHAPE-detected fragment hits, ITC, read-out: Kd) of 0.028 ± 0.002 µM.
CN(C)CCN(C=O)Cc1ccc2nccnc2c1 [KW-79-1, N-(2-(dimethylamino)ethyl)-N-(quinoxalin-6-ylmethyl)formamide] showed a Kd (TPP riboswitch RNA; [3]) of 69.1 µM.
For CCS(=O)(=O)c1ccc(Cl)nc1 [Compound S17], the Kd (TPP riboswitch RNA; [4]) was “no binding”.
NC(=O)c1ccc(Cl)nc1 [Compound S15] was tested, and the Kd (TPP riboswitch RNA; [2]) was 1800 µM.
In the case of COC(=O)c1cnc(Cl)c(Cl)c1 [Compound S11], the Kd (TPP riboswitch RNA; [2]) is reported as 820 µM.
With CCOC(=O)c1ccc(Cl)nc1 [Compound S13] the Kd (TPP riboswitch RNA; [2]) was 600 µM.
O=C(O)CCC(=O)Nc1ccc2nccnc2c1 [KW-16-1] gave a Kd (TPP riboswitch RNA; [3]) of 653 µM.
Work on COC(=O)c1ccc(Br)nc1 [Compound S5] yielded a Kd (TPP riboswitch RNA; [2]) of 440 µM.
For O=C(O)c1csc2ccc(Cl)cc12 [Compound 29], the “binding detected by SHAPE, second-round screen” value [1] was “induced a very robust change in the SHAPE reactivity signal”.
For COC(=O)c1ccc(C(F)(F)F)nc1 [Compound S9], the Kd (TPP riboswitch RNA; [4]) was “no binding”.
With COC(=O)c1ccc(Oc2ccccc2)nc1 [Compound S10] the Kd (TPP riboswitch RNA; [4]) was “no binding”.
For OCc1ccc(Cl)nc1 [Compound S14], the Kd (TPP riboswitch RNA; [2]) was 1300 µM.
